Several values for one entry are separate records, joined by “and”; a condition that tells them apart may be missing. Equal values may be shown once. Read-outs that look alike come from different tables or passages of the source.
Target: T1, MRGPRX4 (Homo sapiens, UniProt Q96LA9)
T1 construct: expressed in transfected cells; host or cells: HEK293T
Assay: IP1 accumulation HTRF assay, MRGPRX4
Type: cell-based
Set-up: key to IP1 Basal / IP1 accumulation with YM (Figure 1c) / response to agonist, MRGPRX4 / IP1 accumulation: % IP1: unstimulated mock-transfected = 0%, fully stimulated MRGPRX4 = 100%
Details: for IP1 accumulation: MRGPRX4 alone, Fig S3d-f
Protocol: HEK293T cells were transfected with 1 pg/cell of MRGPRX4 DNA, and the amount of DNA was kept constant at 2 pg/cell with pcDNA3.1(+) empty vector, unless otherwise specified. Twenty four hours after transfection, IP1 assay was performed as previously described ([51]). When applicable, cells were treated with 1 μM YM254890 (YM) or different concentrations of U73122 for 1 h prior to addition of agonist or buffer. After incubation for 2 h, HTRF reagents and IP1 calibration standards were added and incubated for 2 h in the dark at room temperature. Time-resolved fluorescence signals were read on the BioTek Synergy NEO-TRF Hybrid multi-mode reader (BioTek Instruments). All data were carried out in three independent experiments with three technical replicate each.
For characterization of the Tet-On Nluc-HT7-MRGPRX4-GFP10-1D4 construct, HEK293T cells were transfected as previously described with some modifications. Dox dose-response of NLuc-HT7-MRGPRX4-GFP10-1D4 DNA titration was assayed by transfecting HEK293T cells with either 1 or 2 pg/cell of NLuc-HT7-MRGPRX4-GFP10-1D4 construct. Receptor expression was induced 4 h after transfection with addition of different concentrations of dox for 20 h. For the RAMP DNA titration assay, cells were cotransfected with a constant amount of 1 pg/cell of NLuc-HT7-MRGPRX4-GFP10-1D4 DNA and 1, 0.75, 0.5, or 0 pg/cell of each HA-RAMP-OLLAS with the homogenous transfection method. Four hours after transfection, receptor expression was induced with addition of 1000 ng/ml dox. Twenty hours after induction, IP1 assay was performed.
Data reduction, standard calibration, and transformation of HTRF data were performed as previously described ([51]). Normalized IP1 values were calculated relative to the unstimulated mock-transfected cells (set to 0%) and fully stimulated MRGPRX4 (alone if applicable) (set to 100%).

T1 sequence (Q96LA9 whole entry): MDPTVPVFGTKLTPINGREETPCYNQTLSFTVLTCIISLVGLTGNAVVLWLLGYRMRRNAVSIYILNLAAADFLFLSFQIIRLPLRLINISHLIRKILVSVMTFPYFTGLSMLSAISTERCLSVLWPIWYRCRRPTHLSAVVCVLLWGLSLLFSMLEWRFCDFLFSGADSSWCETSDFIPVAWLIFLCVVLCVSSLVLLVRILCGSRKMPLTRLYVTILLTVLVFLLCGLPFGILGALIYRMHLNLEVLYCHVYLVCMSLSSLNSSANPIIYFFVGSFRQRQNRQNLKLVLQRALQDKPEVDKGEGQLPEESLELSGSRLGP

C[C@H](CCC(=O)O)[C@H]1CC[C@H]2[C@@H]3CC[C@@H]4C[C@H](O)CC[C@]4(C)[C@H]3C[C@H](O)[C@]12C [DCA, deoxycholic acid]
efficacy (Figure 4a bottom, MRGPRX4 alone (reference = 100), individual replicates): 100 | Emax (Figure 4a bottom, MRGPRX4 alone (reference = 100), individual replicates, read-out: efficacy): 100% | response to agonist, MRGPRX4 (Figure 4c-f, agonist 100µM, MRGPRX4 alone (reference = 100)): 100 | normalized IP1 accumulation (HA-MRGX4-1D4, log [agonist] (M) -4): 58.1095 and 47.3107 | normalized IP1 accumulation (HA-MRGX4-1D4, log [agonist] (M) -4.69897): 33.2327 and 34.6328 | normalized IP1 accumulation (HA-MRGX4-1D4, log [agonist] (M) -5.39794): 18.9895 | normalized IP1 accumulation (HA-MRGX4-1D4, log [agonist] (M) -6.09691): 13.2757 and 15.4467 | normalized IP1 accumulation (HA-MRGX4-1D4, log [agonist] (M) -6.79588): 13.3916 and 13.9578 | normalized IP1 accumulation (HA-MRGX4-1D4, log [agonist] (M) -7.49485): 12.579 and 14.4894 | Emax (HEK-293T, MRGPRX4 (Fig. 1A), HEK293T, normalized to 100 μM nateglinide, read-out: IP1 Emax): 77.9% | Emax (HEK-293T, MRGPRX4 (Fig. 1A), HEK293T, normalized to 100 μM nateglinide, read-out: IP1 span): 62.9% | Emax (MRGPRX4 0.125 pg DNA/cell, individual experiments, read-out: efficacy (Figure 1b bottom)): 47.9% | Emax (MRGPRX4 0.25 pg DNA/cell, individual experiments, read-out: efficacy (Figure 1b bottom)): 45% | Emax (MRGPRX4 0.5 pg DNA/cell, individual experiments, read-out: efficacy (Figure 1b bottom)): 58.3% | Emax (MRGPRX4 1 pg DNA/cell, individual experiments, read-out: efficacy (Figure 1b bottom)): 70.6% | Emax (MRGPRX4 2 pg DNA/cell, individual experiments, read-out: efficacy (Figure 1b bottom)): 80.7% | IP1 Basal (MRGPRX4 (Fig. 1A), HEK293T, normalized to 100 μM nateglinide): 15.03 | IP1 Basal (MRGPRX4 DNA 0.25 pg/cell (Fig. S1)): 4.249 | Emax (MRGPRX4 DNA 0.25 pg/cell (Fig. S1), read-out: IP1 Emax): 54.2% | Emax (MRGPRX4 DNA 0.25 pg/cell (Fig. S1), read-out: IP1 span): 50% | IP1 Basal (MRGPRX4 DNA 0.5 pg/cell (Fig. S1)): 6.783 | Emax (MRGPRX4 DNA 0.5 pg/cell (Fig. S1), read-out: IP1 Emax): 68% | Emax (MRGPRX4 DNA 0.5 pg/cell (Fig. S1), read-out: IP1 span): 61.2% | IP1 Basal (MRGPRX4 DNA 1 pg/cell (Fig. S1)): 9.471 | Emax (MRGPRX4 DNA 1 pg/cell (Fig. S1), read-out: IP1 Emax): 73.8% | Emax (MRGPRX4 DNA 1 pg/cell (Fig. S1), read-out: IP1 span): 64.3% | IP1 Basal (MRGPRX4 DNA 2 pg/cell (Fig. S1)): 12.99 | Emax (MRGPRX4 DNA 2 pg/cell (Fig. S1), read-out: IP1 Emax): 87.2% | Emax (MRGPRX4 DNA 2 pg/cell (Fig. S1), read-out: IP1 span): 74.2% | Emax (MRGPRX4 DNA […] (Fig. S1), read-out: IP1 Emax): 50.3% | Emax (MRGPRX4 DNA […] (Fig. S1), read-out: IP1 span): 47% | IP1 accumulation (log [DCA] (M) -4.69897): 57.1868 and 75.4734 | IP1 accumulation (log [DCA] (M) -5.39794): 30.3386 | IP1 accumulation (log [DCA] (M) -6.09691): 23.4514 and 33.1858 | IP1 accumulation (log [DCA] (M) -6.79588): 21.3567 and 30.9234 | IP1 accumulation (log [DCA] (M) -7.49485): 19.4869 and 27.2792 | normalized IP1 accumulation (SP-FLAG-Nluc-HT7-MRGX4_Tet-GFP10-1D4, log [agonist] (M) -4.09691): 41.457 and 40.0931 | normalized IP1 accumulation (SP-FLAG-Nluc-HT7-MRGX4_Tet-GFP10-1D4, log [agonist] (M) -4.79588): 23.5519 and 24.4487 | normalized IP1 accumulation (SP-FLAG-Nluc-HT7-MRGX4_Tet-GFP10-1D4, log [agonist] (M) -5.49485): 12.8144 and 13.3904 | normalized IP1 accumulation (SP-FLAG-Nluc-HT7-MRGX4_Tet-GFP10-1D4, log [agonist] (M) -6.19382): 11.7164 and 10.0407 | normalized IP1 accumulation (SP-FLAG-Nluc-HT7-MRGX4_Tet-GFP10-1D4, log [agonist] (M) -6.89279): 9.829 and 11.4364 | normalized IP1 accumulation (SP-FLAG-Nluc-HT7-MRGX4_Tet-GFP10-1D4, log [agonist] (M) -7.59176): 10.7139 and 10.5391 | normalized IP1 accumulation (SP-FLAG-Nluc-HT7-MRGX4_Tet-GFP10-1D4 no dox, log [agonist] (M) -4.09691): 9.638 and 9.7 | normalized IP1 accumulation (SP-FLAG-Nluc-HT7-MRGX4_Tet-GFP10-1D4 no dox, log [agonist] (M) -4.79588): 7.503 and 8.174 | normalized IP1 accumulation (SP-FLAG-Nluc-HT7-MRGX4_Tet-GFP10-1D4 no dox, log [agonist] (M) -5.49485): 9.457 and 8.365 | normalized IP1 accumulation (SP-FLAG-Nluc-HT7-MRGX4_Tet-GFP10-1D4 no dox, log [agonist] (M) -6.19382): 8.686 and 8.091 | normalized IP1 accumulation (SP-FLAG-Nluc-HT7-MRGX4_Tet-GFP10-1D4 no dox, log [agonist] (M) -6.89279): 8.749 and 8.325 | normalized IP1 accumulation (SP-FLAG-Nluc-HT7-MRGX4_Tet-GFP10-1D4 no dox, log [agonist] (M) -7.59176): 8.705 and 9.2498 | normalized IP1 accumulation (SP-Flag-MRGX4-1D4, log [agonist] (M) -4): 68.6268 and 66.4742 | normalized IP1 accumulation (SP-Flag-MRGX4-1D4, log [agonist] (M) -4.69897): 30.127 and 33.8796 | normalized IP1 accumulation (SP-Flag-MRGX4-1D4, log [agonist] (M) -5.39794): 14.3992 and 13.1143 | normalized IP1 accumulation (SP-Flag-MRGX4-1D4, log [agonist] (M) -6.09691): 8.224 and 9.664 | normalized IP1 accumulation (SP-Flag-MRGX4-1D4, log [agonist] (M) -6.79588): 7.099 and 7.695 | normalized IP1 accumulation (SP-Flag-MRGX4-1D4, log [agonist] (M) -7.49485): 6.315 and 7.555 | normalized IP1 accumulation (SP-Flag-MRGX4-GFP10-1D4, log [agonist] (M) -4): 68.4519 and 65.3389 | normalized IP1 accumulation (SP-Flag-MRGX4-GFP10-1D4, log [agonist] (M) -4.69897): 36.0479 and 38.0394 | normalized IP1 accumulation (SP-Flag-MRGX4-GFP10-1D4, log [agonist] (M) -6.09691): 10.072 and 10.3886 | normalized IP1 accumulation (SP-Flag-MRGX4-GFP10-1D4, log [agonist] (M) -6.79588): 8.9869 and 9.025 | normalized IP1 accumulation (SP-Flag-MRGX4-GFP10-1D4, log [agonist] (M) -7.49485): 7.933 and 9.527 | IP1 Basal (construct FLAG-MRGPRX4-1D4 (Fig. S4A-F)): 7.469 | Emax (construct FLAG-MRGPRX4-1D4 (Fig. S4A-F), read-out: IP1 Emax): 96.3% | Emax (construct FLAG-MRGPRX4-1D4 (Fig. S4A-F), read-out: IP1 span): 88.8% | IP1 Basal (construct FLAG-MRGPRX4-GFP10-1D4 (Fig. S4A-F)): 8.165 | Emax (construct FLAG-MRGPRX4-GFP10-1D4 (Fig. S4A-F), read-out: IP1 Emax): 88.5% | Emax (construct FLAG-MRGPRX4-GFP10-1D4 (Fig. S4A-F), read-out: IP1 span): 80.4% | IP1 Basal (construct FLAG-NLuc-HT7-MRGPRX4-GFP10-1D4 (Fig. S4A-F)): 10.56 | Emax (construct FLAG-NLuc-HT7-MRGPRX4-GFP10-1D4 (Fig. S4A-F), read-out: IP1 Emax): 55% | Emax (construct FLAG-NLuc-HT7-MRGPRX4-GFP10-1D4 (Fig. S4A-F), read-out: IP1 span): 44.5% | IP1 Basal (construct HA-MRGPRX4-1D4 (Fig. S4A-F)): 12.52 | Emax (construct HA-MRGPRX4-1D4 (Fig. S4A-F), read-out: IP1 Emax): 64.7% | Emax (construct HA-MRGPRX4-1D4 (Fig. S4A-F), read-out: IP1 span): 52.2%

Reference: paper PMC10165273, “Itch receptor MRGPRX4 interacts with the receptor activity–modifying proteins” (The Journal of Biological Chemistry, 2023)
